Reference: patent US12435087B2, “Modulators of DCN-1 and methods of use thereof” (Cellarity, Inc., priority 2023, dated 2025)
Where two headings read alike, the source gives them in different places.

Experiments:
[1] = target: DCN2 (DCUND2) protein PONY domain (Homo sapiens (Human), UniProt Q6PH85); assay: DCN2 TR-FRET assay, measurement of Kinact/KI; format: binding
Protocol: A TR-FRET Assay was performed to evaluate the ability of the compounds to bind DCN-2. The time resolved—Forster's resonance energy transfer (TR-FRET) assay was designed following the protocol established in (Scott et al., Nat Chem Biol. 2017 August; 13(8): 850-857). A recombinant form of the DCN2 (DCUND2) protein PONY domain was produced using an E. coli expression system at Viva Biotech China. The DCN2 protein was biotinylated (EZ sulfo-NHS-LC-biotin; Thermofisher) for labeling with 2.5 nM streptavidin terbium (Tb) cryptate in the reaction. The probe was changed to a non-covalent DCN1 inhibitor labeled with carboxyfluorescein (FAM; Zhou el al., Nat Commun. 2017; 8: 1150). Buffer conditions were modified to enhance protein stability by replacing TritonX with 0.05% Tween20 and increasing NaCl to 200 mM. […] The Kinact and KI measurements were taken to allow for continuous reads over 24 hrs. Plates were read every 5 min up to 1 hr, every 15 min up to 5 hr, and every hour up to 10 hours. Kinact and KI were calculated based on the following equations (Krippendorff B F, et al. Mechanism-based inhibition: deriving K(I) and k(inact) directly from time-dependent IC(50) values. J BiomolScreen. 2009; Mons E et al. A Comprehensive Guide for Assessing Covalent Inhibition in Enzymatic Assays Illustrated with Kinetic Simulations. […] The Kinact and KI values could be estimated from the tight curves of the IC50 values over time. [formula]

DCN1 protein = DCN1 protein (Homo sapiens (Human), UniProt Q96GG9); assay: Intact protein MS analysis with the RapidFire-TOF system (covalent adduct formation); format: binding; details: 400 nM DCN1, incubated at room temperature for 3 hours
Sequence of DCN1 protein (Q96GG9 whole entry): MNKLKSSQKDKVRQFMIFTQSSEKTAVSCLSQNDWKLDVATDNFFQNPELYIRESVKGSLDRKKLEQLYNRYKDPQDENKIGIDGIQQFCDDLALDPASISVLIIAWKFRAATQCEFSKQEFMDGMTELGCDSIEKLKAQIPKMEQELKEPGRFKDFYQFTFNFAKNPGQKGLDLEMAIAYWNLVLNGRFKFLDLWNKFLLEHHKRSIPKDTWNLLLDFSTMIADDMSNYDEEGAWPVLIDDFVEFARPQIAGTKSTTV
Summary of the method: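 Tag-free His-TEV-DCN1 expressed in E. coli at 400 nM in 25 mM Tris-HCl, 200 mM NaCl, 1 mM DTT, incubated with 11 compound concentrations at room temperature for 3 h unless otherwise specified. Quenched with 0.2% formic acid; intact-protein RapidFire Q-TOF MS, deconvoluted to detect parent and compound-adduct masses.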

[2] = target: T1, DCN1 (DCUND1) protein PONY domain (Homo sapiens (Human), UniProt Q96GG9); assay: TR-FRET assay (binding to DCN-1, displacement of FAM-labeled probe)
T1 sequence (Q96GG9 60-248): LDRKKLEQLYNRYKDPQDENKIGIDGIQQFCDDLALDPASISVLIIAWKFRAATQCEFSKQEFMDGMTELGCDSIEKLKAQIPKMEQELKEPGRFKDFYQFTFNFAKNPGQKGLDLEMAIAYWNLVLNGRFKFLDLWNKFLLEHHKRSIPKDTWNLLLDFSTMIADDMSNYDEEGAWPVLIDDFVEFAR
Summary of the method: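 Compounds read at 1, 5 and 24 h, 0.1% final DMSO, by TR-FRET between terbium-streptavidin on biotinylated DCN1 PONY domain (E. coli) and a FAM-tagged non-covalent inhibitor probe. Two setups used, 5 nM protein with 20 nM labelled probe, or 0.31 nM protein with 100 nM labelled plus 800 nM unlabelled probe; buffer had TritonX and 200 mM NaCl. % activity relative to high (with probe) and low (without probe) controls.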

[3] = target: T1, DCN1 (DCUND1) protein PONY domain; assay: Off-rate measurement of reversible covalent molecules (jump dilution TR-FRET with Cy5 probe); details: binding mode from off-rate measurement
Protocol: A TR-FRET assay was performed to classify the compounds as an irreversible covalent binder, a reversible covalent binder or a reversible binder.
An assay to measure the off-rate of reversible covalent molecules was developed. A typical covalent compound is assumed to stay bound to a protein for at least the life of that protein in the cell. In reality, there is a range of how long a covalent compounds remains bound before a reverse reaction takes place. Thus, some covalent bonds can be labeled as reversible as their reverse reaction takes place in a measurable amount of time under physiological conditions. The assay capitalizes on the range of covalent binders by using a high affinity covalent binder as a probe to displace the more reversible binders in an adaptation of the jump dilution method.
In this version of the jump dilution method, the increase in covalent probe binding over time was measured through a TR-FRET reaction between the covalent probe and the biotinylated target protein.
(§1) The recombinant form of the DCN1 (DCUND1) protein PONY domain was produced using an E. coli expression system at Viva Biotech (China). The DCN1 protein was biotinylated (EZ sulfo-NHS-LC-biotin; Thermofisher) for labeling with streptavidin terbium (Tb) cryptate in the reaction. This biotinylated protein was used in two forms of the TR-FRET assay as described below.
The off-rate measurement is executed in two steps based on the jump dilution method. […] The greatest dilution allowed within the constraints of the assay was chosen. These factors allow a competitive advantage for the covalent probe to replace the test compound when that compound releases from the target protein. The actual measure is the rate of increased TR-FRET signal as the covalent probe replaces the test compound over time. […] The resulting time dependent curve of the TR-FRET signal is fit to the following equation: Y=Y0+(Plateau−Y0)*(1−exp(−K*x))
K is the rate constant (1/unit of time). The residence time is defined as the inverse of K, the rate constant. The half-life is calculated as ln(2)/K.

[4] = target: T1, DCN1 (DCUND1) protein PONY domain; assay: TR-FRET with FAM probe (compound potency, potency of the Cy5 probe); format: binding; details: potency of the covalent Cy5 probe (P-1) to DCN1; read-out: Kd (EC50) of the Cy5 probe
Text: as §1
This version of the TR-FRET assay was used to measure compound potency to the target, specifically to measure the potency of the Cy5 probe (P-1). A non-covalent DCN1 inhibitor (Zhou et al., 2017) labeled with carboxyfluorescein (FAM) was used as the FRET acceptor probe. Displacement of the […], and thus decrease in the FRET signal, was indicative of compound activity on the target protein. Buffer conditions were optimized to enhance compound and protein stability (200 mM NaCl, 25 mM Tris, 0.5 mM DTT, 0.05% Tween20, 5% DMSO, 5% PEG-3350, pH 7.5) and concentrations of protein (0.31 nM) and probe (100 nM labeled, 800 nM unlabeled) were optimized for detection of potent molecules. The TR-FRET ratio between Tb-DCN1 and the FAM-labeled probe was measured in a 384-well opti-plate (Perkin Elmer) using a plate reader (BMG) at 1, 5, and 24 hrs after treatment with compound. The ratio was normalized to the high (DCN1 and FAM-probe) and low (DCN1 and no probe) controls for a readout of % activity (=100*(x−low)/(high−low)).

[5] = test system: Cullin-3 (CUL3) neddylation; details: positive control, 1 μM; Zhou et al. Nature Comm. 2021; cited from earlier work
[6] = 24 hr after treatment with compound, read-out: TR FRET IC50 24 hr
[7] = TR FRET IC50 1 hr (nM), 1 hr after treatment with compound
[8] = read-out: TR FRET IC50 1 hr, 1 hr after treatment with compound

Sequence of DCN2 (DCUND2) protein PONY domain (Q6PH85 60-248): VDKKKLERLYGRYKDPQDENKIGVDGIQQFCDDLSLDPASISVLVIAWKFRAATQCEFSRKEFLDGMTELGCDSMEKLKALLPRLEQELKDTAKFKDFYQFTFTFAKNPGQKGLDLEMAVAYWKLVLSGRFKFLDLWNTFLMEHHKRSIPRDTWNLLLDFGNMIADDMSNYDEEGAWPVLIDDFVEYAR

## C=C(CN1CCOCC1)C(=O)NC[C@@H](NC(=O)[C@H](Cc1nc2ccc(C(C)C)cc2s1)NC(=O)CC)C1CCCCC1 [Compound C1, reference compound]
[1]
  Ki: 0.2 to 0.5 nM
  kinact: 0.005 to 0.00833 s⁻¹
  kinact/KI: 8.33e+06 to 1.67e+07 M⁻¹ s⁻¹

## CCN1C(=O)[C@@H](NC(=O)c2nccc(C(F)(F)F)n2)[C@H](c2cccc(NC(=O)C3=CCN(C4COC4)C3)c2)c2c(C)nn(-c3ccccc3)c21 [Compound I-226]
DCN1 protein
  Emax: 0 to 30%
[2]; [6]
  IC50: 200 to 1000 nM
[2]; [7]
  IC50: 1000 to 3000 nM

## CCN1CC=C(C(=O)Nc2cccc([C@@H]3c4c(C)nn(-c5ccccc5)c4N(CC)C(=O)[C@H]3NC(=O)c3ccn(C(F)(F)F)n3)c2)C1 [Compound I-227]
DCN1 protein
  Emax: 80 to 100%
[2]; [6]
  IC50: ≤ 200 nM
[2]; [7]
  IC50: 200 to 1000 nM

## C=C(CN1CCC(F)(F)C1)C(=O)Nc1cccc([C@@H]2c3c(C)nn(-c4ccccc4)c3N(CC)C(=O)[C@H]2NC(=O)c2nccc(C(F)(F)F)n2)c1 [Compound I-228]
DCN1 protein
  Emax: 80 to 100%
[2]; [6]
  IC50: ≤ 200 nM
[2]; [8]
  IC50: ≤ 200 nM

## C/C=C(\CN1CCN(C2COC2)CC1)C(=O)NCc1cccc([C@@H]2c3cnn(-c4ccccc4)c3N(CC)C(=O)[C@H]2NC(=O)c2ccn(C(F)(F)F)n2)c1 [Compound I-230A, N-((4R,5S)-7-ethyl-4-(3-(((E)-2-((4-(oxetan-3-yl)piperazin-1-yl)methyl)but-2-enamido)methyl)phenyl)-6-oxo-1-phenyl-4,5,6,7-tetrahydro-1H-pyrazolo[3,4-b]pyridin-5-yl)-1-(trifluoromethyl)-1H-pyrazole-3-carboxamide]
DCN1 protein
  Emax: 80 to 100%
[2]; [6]
  IC50: ≤ 200 nM
[2]; [7]
  IC50: 200 to 1000 nM

## C=C(C(=O)NCc1cccc([C@@H]2c3cnn(-c4ccccc4)c3N(CC)C(=O)[C@H]2NC(=O)c2csc(C(F)(F)F)n2)c1)C(C)(C)N(C)C1COC1 [Compound I-231, N-((4R,5S)-7-ethyl-4-(3-((3-methyl-3-(methyl(oxetan-3-yl)amino)-2-methylenebutanamido)methyl)phenyl)-6-oxo-1-phenyl-4,5,6,7-tetrahydro-1H-pyrazolo[3,4-b]pyridin-5-yl)-2-(trifluoromethyl)thiazole-4-carboxamide]
DCN1 protein
  Emax: 80 to 100%
[2]; [6]
  IC50: ≤ 200 nM
[2]; [8]
  IC50: ≤ 200 nM

## C/C=C(\CN1CCN(C2COC2)CC1)C(=O)Nc1cccc([C@@H]2c3cnn(-c4ccccc4)c3N(CC)C(=O)[C@H]2NC(=O)c2nccc(C(F)(F)F)n2)c1 [Compound I-232, N-((4R,5S)-7-ethyl-4-(3-((E)-2-((4-(oxetan-3-yl)piperazin-1-yl)methyl)but-2-enamido)phenyl)-6-oxo-1-phenyl-4,5,6,7-tetrahydro-1H-pyrazolo[3,4-b]pyridin-5-yl)-4-(trifluoromethyl)pyrimidine-2-carboxamide]
DCN1 protein
  Emax: 80 to 100%
[2]; [6]
  IC50: ≤ 200 nM
[2]; [7]
  IC50: ≤ 200 nM

## C/C=C(\CN1CCN(C2COC2)CC1)C(=O)Nc1cccc([C@@H]2c3cnn(-c4ccccc4)c3N(CC)C(=O)[C@H]2NC(=O)c2ccn(C3CC3)n2)c1 [Compound I-233]
DCN1 protein
  Emax: 80 to 100%
[2]; [6]
  IC50: ≤ 200 nM
[2]; [7]
  IC50: ≤ 200 nM

## C=C(C(=O)NCc1cccc([C@@H]2c3cnn(-c4ccccc4)c3N(CC)C(=O)[C@H]2NC(=O)c2nccc(C(F)(F)F)n2)c1)[C@@H](C)N(C)C1COC1 [Compound I-300]
[3]
  Category: irreversible
[2]; [6]
  IC50: ≤ 200 nM
[2]; [8]
  IC50: ≤ 200 nM

## C=C(C(=O)NCc1cccc([C@@H]2c3cnn(-c4ccccc4)c3N(CC)C(=O)[C@H]2NC(=O)c2csc(C(F)(F)F)n2)c1)C(C)N(C)C1COC1 (some centres unmarked) [Compound I-305]
[3]
  Category: irreversible
[1]
  Ki: > 0.5 nM
  kinact: 0.005 to 0.00833 s⁻¹
  kinact/KI: 167000 to 3.33e+06 M⁻¹ s⁻¹
[2]; [6]
  IC50: ≤ 200 nM
[2]; [8]
  IC50: ≤ 200 nM

## C/C=C(\CN1CCN(C2COC2)CC1)C(=O)Nc1cccc([C@@H]2c3cnn(-c4ccccc4)c3N(CC)C(=O)[C@H]2NC(=O)c2ccn(C(F)(F)F)n2)c1 [Compound I-383, N-((4R,5S)-7-ethyl-4-(3-((E)-2-((4-(oxetan-3-yl)piperazin-1-yl)methyl)but-2-enamido)phenyl)-6-oxo-1-phenyl-4,5,6,7-tetrahydro-1H-pyrazolo[3,4-b]pyridin-5-yl)-1-(trifluoromethyl)-1H-pyrazole-3-carboxamide]
[3]
  Category: irreversible
[1]
  Ki: > 0.5 nM
  kinact: 0.00333 to 0.005 s⁻¹
  kinact/KI: 167000 to 3.33e+06 M⁻¹ s⁻¹
[2]; [6]
  IC50: ≤ 200 nM
[2]; [7]
  IC50: ≤ 200 nM

## C=C(CN1CCOCC1)C(=O)Nc1cccc([C@@H]2c3cnn(-c4cccc(OCCCN5CCN(C(=O)CCCCCN6/C(=C/C=C/C=C/C7=[N+](C)c8ccc(S(=O)(=O)[O-])cc8C7(C)C)C(C)(C)c7cc(S(=O)(=O)O)ccc76)CC5)c4)c3N(CC)C(=O)[C@H]2NC(=O)c2cccc(C(F)(F)F)c2)c1 [Cy5 probe, 2-((1E,3E)-5-((E)-1-(6-(4-(3-(3-((4R,5S)-7-ethyl-4-(3-(2-(morpholinomethyl)acrylamido)phenyl)-6-oxo-5-(3-(trifluoromethyl)benzamido)-4,5,6,7-tetrahydro-1H-pyrazolo[3,4-b]pyridin-1-yl)phenoxy)propyl)piperazin-1-yl)-6-oxohexyl)-3,3-dimethyl-5-sulfoindolin-2-ylidene)penta-1,3-dien-1-yl)-1,3,3-trimethyl-3H-indol-1-ium-5-sulfonate]
[4]
  EC50: 23.2 nM

## C=C(CN1CCOCC1)C(=O)NC[C@@H](NC(=O)[C@H](Cc1nc2ccc(C(C)C)cc2s1)NC(=O)CC)C1CCCCC1 [DI-1548]
[5]
  effect on CUL3 neddylation: reduce CUL3 neddylation
